Test results reported in patent US4466970A, “Dioxocyclobutene compounds” (Smith Kline & French Laboratories Limited, priority 1982, dated 1984).

System: histamine H2 -receptors
Assay: Heidenhain pouch dog: inhibition of histamine-stimulated acid secretion
Type: in vivo
Conditions: intravenous administration; dose levels adjusted to produce similar peak responses

Nc1c(NCCCOc2cc(CN3CCCCC3)ccn2)c(=O)c1=O [Example 1, 1-[3-[4-(Piperidinomethyl)pyrid-2-yloxy]prop-1-ylamino]-2-aminocyclobut-1-ene-3,4-dione]
duration of action relative to cimetidine: significant increase in duration of action
